From paper PMC3694096, “Development of Novel In Vivo Chemical Probes to Address CNS Protein Kinase Involvement in Synaptic Dysfunction” (PLoS ONE, 2013)

Columns and labels:
[1] = molecular target: T1, DCAMKL2 (Homo sapiens, UniProt Q8N568); assay: Kinome profiler screen; type: biochemical; details: at 20,000 nM inhibitor; kinase activity remaining
T1 construct: purchased Millipore KinaseProfiler

[2] = molecular target: T2, Ron (Homo sapiens, UniProt Q04912); assay: Kinome profiler screen; type: biochemical; details: at 20,000 nM inhibitor; kinase activity remaining
T2 construct: purchased Millipore KinaseProfiler

[3] = molecular target: T3, PI3 Kinase (p120γ) (Homo sapiens, UniProt P48736); assay: Kinome profiler screen; type: biochemical; details: at 20,000 nM inhibitor; kinase activity remaining
T3 construct: purchased Millipore KinaseProfiler

[4] = molecular target: T4, Pim-1 (Homo sapiens, UniProt P11309); assay: Kinome profiler screen; type: biochemical; details: at 20,000 nM inhibitor; kinase activity remaining
T4 construct: purchased Millipore KinaseProfiler

[5] = molecular target: T5, FGFR3 (Homo sapiens, UniProt P22607); assay: Kinome profiler screen; type: biochemical; details: at 20,000 nM inhibitor; kinase activity remaining
T5 construct: purchased Millipore KinaseProfiler

[6] = molecular target: T6, DYRK2 (Homo sapiens, UniProt Q92630); assay: Kinome profiler screen; type: biochemical; details: at 20,000 nM inhibitor; kinase activity remaining
T6 construct: purchased Millipore KinaseProfiler

[7] = molecular target: T7, CLK2 (Homo sapiens, UniProt P49760); assay: Kinome profiler screen; type: biochemical; details: at 20,000 nM inhibitor; kinase activity remaining
T7 construct: purchased Millipore KinaseProfiler

[8] = molecular target: T8, Fes (Homo sapiens, UniProt P07332); assay: Kinome profiler screen; type: biochemical; details: at 20,000 nM inhibitor; kinase activity remaining
T8 construct: purchased Millipore KinaseProfiler

[9] = molecular target: T9, Flt4 (Homo sapiens, UniProt P35916); assay: Kinome profiler screen; type: biochemical; details: at 20,000 nM inhibitor; kinase activity remaining
T9 construct: purchased Millipore

[10] = molecular target: T10, cKit(D816V) (Homo sapiens, UniProt P10721, D816V); assay: Kinome profiler screen; type: biochemical; details: at 20,000 nM inhibitor; kinase activity remaining
T10 construct: purchased Millipore KinaseProfiler

[11] = molecular target: T11, EphA4 (Homo sapiens, UniProt P54764); assay: Kinome profiler screen; type: biochemical; details: at 20,000 nM inhibitor; kinase activity remaining
T11 construct: purchased Millipore KinaseProfiler

[12] = molecular target: T12, ROCK-II (Homo sapiens, UniProt O75116); assay: Kinome profiler screen; type: biochemical; details: at 20,000 nM inhibitor; kinase activity remaining
T12 construct: purchased Millipore KinaseProfiler

[13] = molecular target: T13, Hck (Homo sapiens, UniProt P08631); assay: Kinome profiler screen; type: biochemical; details: at 20,000 nM inhibitor; kinase activity remaining
T13 construct: purchased Millipore KinaseProfiler

[14] = molecular target: T14, PI3 Kinase (p110α/p65α)(m) (Mus musculus, UniProt P42337); assay: Kinome profiler screen; type: biochemical; details: at 20,000 nM inhibitor; kinase activity remaining
T14 construct: purchased Millipore KinaseProfiler

[15] = molecular target: T15, AMPKα2 (Homo sapiens, UniProt P54646); assay: Kinome profiler screen; type: biochemical; details: at 20,000 nM inhibitor; kinase activity remaining
T15 construct: purchased Millipore KinaseProfiler

[16] = molecular target: T16, Aurora-B (Homo sapiens, UniProt Q96GD4); assay: Kinome profiler screen; type: biochemical; details: at 20,000 nM inhibitor; kinase activity remaining
T16 construct: purchased Millipore KinaseProfiler

[17] = molecular target: T17, PKCα (Homo sapiens, UniProt P17252); assay: Kinome profiler screen; type: biochemical; details: at 20,000 nM inhibitor; kinase activity remaining
T17 construct: purchased Millipore KinaseProfiler

[18] = molecular target: T18, IRAK1 (Homo sapiens, UniProt P51617); assay: Kinome profiler screen; type: biochemical; details: at 20,000 nM inhibitor; kinase activity remaining
T18 construct: purchased Millipore KinaseProfiler

[19] = tested on: BV-2 microglial cells; assay: cells; type: cell-based, murine; details: BV-2 cells, LPS
[20] = molecular target: T19, MuSK (Homo sapiens, UniProt O15146); assay: Kinome profiler screen; type: biochemical; details: at 20,000 nM inhibitor; kinase activity remaining
T19 construct: purchased Millipore KinaseProfiler

[21] = molecular target: T20, MAPK2 (Homo sapiens, UniProt P28482); assay: Kinome profiler screen; type: biochemical; details: at 20,000 nM inhibitor; kinase activity remaining
T20 construct: purchased Millipore KinaseProfiler

[22] = molecular target: T21, PKCγ (Homo sapiens, UniProt P05129); assay: Kinome profiler screen; type: biochemical; details: at 20,000 nM inhibitor; kinase activity remaining
T21 construct: purchased Millipore KinaseProfiler

[23] = molecular target: T22, MINK (Homo sapiens, UniProt Q8N4C8); assay: Kinome profiler screen; type: biochemical; details: at 20,000 nM inhibitor; kinase activity remaining
T22 construct: purchased Millipore KinaseProfiler

[24] = molecular target: T23, PKCδ (Homo sapiens, UniProt Q05655); assay: Kinome profiler screen; type: biochemical; details: at 20,000 nM inhibitor; kinase activity remaining
T23 construct: purchased Millipore KinaseProfiler

[25] = molecular target: T24, MST2 (Homo sapiens, UniProt Q13188); assay: Kinome profiler screen; type: biochemical; details: at 20,000 nM inhibitor; kinase activity remaining
T24 construct: purchased Millipore KinaseProfiler

[26] = molecular target: T25, Ret (V804L) (Homo sapiens, UniProt P07949, V804L); assay: Kinome profiler screen; type: biochemical; details: at 20,000 nM inhibitor; kinase activity remaining
T25 construct: purchased Millipore KinaseProfiler

[27] = molecular target: T26, Yes (Homo sapiens, UniProt P07947); assay: Kinome profiler screen; type: biochemical; details: at 20,000 nM inhibitor; kinase activity remaining
T26 construct: purchased Millipore KinaseProfiler

[28] = molecular target: T27, CK1γ3 (Homo sapiens, UniProt Q9Y6M4); assay: Kinome profiler screen; type: biochemical; details: at 20,000 nM inhibitor; kinase activity remaining
T27 construct: purchased Millipore KinaseProfiler

[29] = molecular target: T28, Abl(Y253F) (Homo sapiens, UniProt P00519, Y253F); assay: Kinome profiler screen; type: biochemical; details: at 20,000 nM inhibitor; kinase activity remaining
T28 construct: purchased Millipore KinaseProfiler

[30] = molecular target: T29, Met (Homo sapiens, UniProt P08581); assay: Kinome profiler screen; type: biochemical; details: at 20,000 nM inhibitor; kinase activity remaining
T29 construct: purchased Millipore KinaseProfiler

[31] = molecular target: T30, WNK2 (Homo sapiens, UniProt Q9Y3S1); assay: Kinome profiler screen; type: biochemical; details: at 20,000 nM inhibitor; kinase activity remaining
T30 construct: purchased Millipore KinaseProfiler

[32] = molecular target: T31, DMPK (Homo sapiens, UniProt Q09013); assay: Kinome profiler screen; type: biochemical; details: at 20,000 nM inhibitor; kinase activity remaining
T31 construct: purchased Millipore KinaseProfiler

[33] = molecular target: T32, EGFR(L858R) (Homo sapiens, UniProt P00533, L858R); assay: Kinome profiler screen; type: biochemical; details: at 20,000 nM inhibitor; kinase activity remaining
T32 construct: purchased Millipore KinaseProfiler

[34] = molecular target: T33, BRK (Homo sapiens, UniProt Q13882); assay: Kinome profiler screen; type: biochemical; details: at 20,000 nM inhibitor; kinase activity remaining
T33 construct: purchased Millipore KinaseProfiler

[35] = molecular target: T34, eEF-2K (Homo sapiens, UniProt O00418); assay: Kinome profiler screen; type: biochemical; details: at 20,000 nM inhibitor; kinase activity remaining
T34 construct: purchased Millipore KinaseProfiler

[36] = molecular target: T35, Met(M1268T) (Homo sapiens, UniProt P08581, M1250T); assay: Kinome profiler screen; type: biochemical; details: at 20,000 nM inhibitor; kinase activity remaining
T35 construct: purchased Millipore KinaseProfiler

[37] = molecular target: T36, cKit(D816H) (Homo sapiens, UniProt P10721, D816H); assay: Kinome profiler screen; type: biochemical; details: at 20,000 nM inhibitor; kinase activity remaining
T36 construct: purchased Millipore KinaseProfiler

[38] = molecular target: T37, MAPK1 (Homo sapiens, UniProt P27361); assay: Kinome profiler screen; type: biochemical; details: at 20,000 nM inhibitor; kinase activity remaining
T37 construct: purchased Millipore KinaseProfiler

[39] = molecular target: T38, GRK7 (Homo sapiens, UniProt Q8WTQ7); assay: Kinome profiler screen; type: biochemical; details: at 20,000 nM inhibitor; kinase activity remaining; read-out: % Activity
T38 construct: purchased Millipore KinaseProfiler

[40] = molecular target: T39, IR (Homo sapiens, UniProt P06213); assay: Kinome profiler screen; type: biochemical; details: at 20,000 nM inhibitor; kinase activity remaining
T39 construct: purchased Millipore KinaseProfiler

[41] = molecular target: T40, PI3 Kinase (p110 β/p85α)(m) (Mus musculus, UniProt Q8BTI9); assay: Kinome profiler screen; type: biochemical; details: at 20,000 nM inhibitor; kinase activity remaining
T40 construct: purchased Millipore KinaseProfiler

[42] = molecular target: T41, VRK2 (Homo sapiens, UniProt Q86Y07); assay: Kinome profiler screen; type: biochemical; details: at 20,000 nM inhibitor; kinase activity remaining
T41 construct: purchased Millipore KinaseProfiler

[43] = molecular target: T42, MAPK2(m) (Mus musculus, UniProt P63085); assay: Kinome profiler screen; type: biochemical; details: at 20,000 nM inhibitor; kinase activity remaining
T42 construct: purchased Millipore KinaseProfiler

T11 sequence (P54764 20-986): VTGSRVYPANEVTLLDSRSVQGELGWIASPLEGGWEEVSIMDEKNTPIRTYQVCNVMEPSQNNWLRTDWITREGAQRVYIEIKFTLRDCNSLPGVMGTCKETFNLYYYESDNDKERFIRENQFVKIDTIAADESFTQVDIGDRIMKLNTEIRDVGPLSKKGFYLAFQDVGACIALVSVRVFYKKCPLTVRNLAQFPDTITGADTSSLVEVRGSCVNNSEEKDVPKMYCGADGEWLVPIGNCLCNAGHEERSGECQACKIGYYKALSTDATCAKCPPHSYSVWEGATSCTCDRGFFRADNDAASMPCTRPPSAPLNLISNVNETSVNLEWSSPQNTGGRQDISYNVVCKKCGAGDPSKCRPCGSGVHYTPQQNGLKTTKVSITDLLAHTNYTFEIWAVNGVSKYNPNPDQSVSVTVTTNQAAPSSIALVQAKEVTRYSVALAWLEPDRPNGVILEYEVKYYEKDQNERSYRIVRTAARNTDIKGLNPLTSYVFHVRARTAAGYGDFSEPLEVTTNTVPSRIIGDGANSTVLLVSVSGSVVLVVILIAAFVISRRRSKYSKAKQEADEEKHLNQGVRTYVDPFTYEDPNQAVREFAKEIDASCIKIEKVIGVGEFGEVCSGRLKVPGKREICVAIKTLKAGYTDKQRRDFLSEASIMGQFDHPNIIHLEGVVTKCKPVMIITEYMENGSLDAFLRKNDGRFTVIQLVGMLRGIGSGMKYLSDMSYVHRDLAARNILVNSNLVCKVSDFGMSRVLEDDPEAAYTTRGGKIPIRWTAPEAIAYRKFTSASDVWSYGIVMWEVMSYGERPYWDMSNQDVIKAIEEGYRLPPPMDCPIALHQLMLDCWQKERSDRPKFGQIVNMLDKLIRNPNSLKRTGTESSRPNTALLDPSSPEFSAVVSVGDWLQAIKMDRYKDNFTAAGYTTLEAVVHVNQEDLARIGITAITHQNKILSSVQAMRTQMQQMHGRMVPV
T26 sequence (P07947 whole entry): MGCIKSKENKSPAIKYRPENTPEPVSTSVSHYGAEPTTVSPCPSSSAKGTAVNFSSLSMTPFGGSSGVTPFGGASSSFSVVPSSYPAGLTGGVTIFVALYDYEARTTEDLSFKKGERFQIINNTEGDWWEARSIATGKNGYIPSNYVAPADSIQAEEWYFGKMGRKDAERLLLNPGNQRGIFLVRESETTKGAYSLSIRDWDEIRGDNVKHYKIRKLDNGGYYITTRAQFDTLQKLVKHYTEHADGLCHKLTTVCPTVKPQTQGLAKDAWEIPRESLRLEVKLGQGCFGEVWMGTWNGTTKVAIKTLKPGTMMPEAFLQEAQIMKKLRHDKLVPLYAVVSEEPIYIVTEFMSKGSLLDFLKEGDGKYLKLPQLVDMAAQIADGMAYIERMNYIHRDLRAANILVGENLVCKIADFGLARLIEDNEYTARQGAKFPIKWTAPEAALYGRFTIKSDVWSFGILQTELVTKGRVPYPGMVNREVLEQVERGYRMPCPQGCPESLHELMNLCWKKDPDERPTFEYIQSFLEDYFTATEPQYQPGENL
T34 sequence (O00418 whole entry): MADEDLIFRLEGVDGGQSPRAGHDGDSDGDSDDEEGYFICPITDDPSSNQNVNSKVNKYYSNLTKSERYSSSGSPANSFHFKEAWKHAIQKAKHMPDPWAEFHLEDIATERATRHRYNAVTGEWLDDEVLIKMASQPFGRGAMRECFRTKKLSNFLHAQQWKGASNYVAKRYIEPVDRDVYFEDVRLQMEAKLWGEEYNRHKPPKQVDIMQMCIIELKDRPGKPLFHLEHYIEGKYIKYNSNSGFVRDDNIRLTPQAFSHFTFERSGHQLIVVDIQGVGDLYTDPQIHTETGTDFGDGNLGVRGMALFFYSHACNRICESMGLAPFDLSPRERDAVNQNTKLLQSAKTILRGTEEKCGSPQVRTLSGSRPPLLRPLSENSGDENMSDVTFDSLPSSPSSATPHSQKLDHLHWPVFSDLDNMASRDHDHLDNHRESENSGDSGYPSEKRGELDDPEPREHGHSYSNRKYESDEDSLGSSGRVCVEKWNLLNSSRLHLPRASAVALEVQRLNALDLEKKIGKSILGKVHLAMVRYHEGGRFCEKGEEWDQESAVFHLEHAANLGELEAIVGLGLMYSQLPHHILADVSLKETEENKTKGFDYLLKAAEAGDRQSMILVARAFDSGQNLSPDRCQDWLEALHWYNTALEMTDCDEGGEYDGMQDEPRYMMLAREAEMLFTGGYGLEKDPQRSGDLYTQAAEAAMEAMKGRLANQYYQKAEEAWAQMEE
T40 sequence (Q8BTI9 whole entry): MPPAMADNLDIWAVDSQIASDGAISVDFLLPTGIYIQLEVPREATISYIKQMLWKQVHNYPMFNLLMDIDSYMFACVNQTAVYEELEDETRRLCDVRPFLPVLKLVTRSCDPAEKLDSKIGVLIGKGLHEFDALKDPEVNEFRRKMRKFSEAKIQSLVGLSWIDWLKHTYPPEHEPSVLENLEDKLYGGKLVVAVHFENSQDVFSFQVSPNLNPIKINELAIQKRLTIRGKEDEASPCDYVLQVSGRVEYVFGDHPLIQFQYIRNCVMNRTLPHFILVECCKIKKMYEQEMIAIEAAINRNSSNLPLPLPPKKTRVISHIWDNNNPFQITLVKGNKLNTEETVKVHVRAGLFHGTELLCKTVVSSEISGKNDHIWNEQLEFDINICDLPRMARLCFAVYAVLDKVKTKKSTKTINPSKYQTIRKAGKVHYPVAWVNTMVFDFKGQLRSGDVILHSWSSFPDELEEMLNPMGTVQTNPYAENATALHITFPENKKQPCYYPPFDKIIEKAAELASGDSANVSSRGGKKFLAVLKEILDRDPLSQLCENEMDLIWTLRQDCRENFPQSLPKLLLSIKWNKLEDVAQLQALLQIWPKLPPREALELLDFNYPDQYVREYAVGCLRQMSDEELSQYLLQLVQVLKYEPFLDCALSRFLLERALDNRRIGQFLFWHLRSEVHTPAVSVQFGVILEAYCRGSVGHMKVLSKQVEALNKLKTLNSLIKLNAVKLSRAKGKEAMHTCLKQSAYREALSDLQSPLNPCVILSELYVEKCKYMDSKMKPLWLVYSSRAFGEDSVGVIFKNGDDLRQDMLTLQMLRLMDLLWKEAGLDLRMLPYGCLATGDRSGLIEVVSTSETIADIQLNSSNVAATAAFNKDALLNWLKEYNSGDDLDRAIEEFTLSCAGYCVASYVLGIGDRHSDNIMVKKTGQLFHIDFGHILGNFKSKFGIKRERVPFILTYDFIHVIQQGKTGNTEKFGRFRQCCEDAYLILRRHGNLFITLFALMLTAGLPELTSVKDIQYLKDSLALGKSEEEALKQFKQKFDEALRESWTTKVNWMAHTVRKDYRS
T40 sequence (P26450 2-724 partner): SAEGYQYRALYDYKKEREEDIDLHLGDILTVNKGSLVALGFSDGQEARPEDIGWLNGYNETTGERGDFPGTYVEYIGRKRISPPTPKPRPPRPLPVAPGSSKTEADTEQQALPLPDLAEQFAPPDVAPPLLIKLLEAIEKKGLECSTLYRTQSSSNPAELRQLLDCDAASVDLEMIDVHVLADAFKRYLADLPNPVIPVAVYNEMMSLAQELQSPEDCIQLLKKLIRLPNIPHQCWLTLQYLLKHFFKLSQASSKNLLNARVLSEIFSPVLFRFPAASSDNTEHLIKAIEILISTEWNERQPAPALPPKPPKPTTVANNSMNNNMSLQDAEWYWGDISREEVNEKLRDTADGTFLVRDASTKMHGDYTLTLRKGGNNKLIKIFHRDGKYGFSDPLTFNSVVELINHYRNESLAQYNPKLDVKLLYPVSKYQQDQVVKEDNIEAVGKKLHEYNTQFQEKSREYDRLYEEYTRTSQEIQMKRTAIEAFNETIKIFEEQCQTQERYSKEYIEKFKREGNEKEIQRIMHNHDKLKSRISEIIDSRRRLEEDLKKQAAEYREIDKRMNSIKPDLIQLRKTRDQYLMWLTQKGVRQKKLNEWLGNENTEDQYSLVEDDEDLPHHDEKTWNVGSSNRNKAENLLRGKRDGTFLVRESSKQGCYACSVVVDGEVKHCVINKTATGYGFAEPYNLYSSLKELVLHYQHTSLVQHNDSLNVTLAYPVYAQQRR
T38 sequence (Q8WTQ7 whole entry): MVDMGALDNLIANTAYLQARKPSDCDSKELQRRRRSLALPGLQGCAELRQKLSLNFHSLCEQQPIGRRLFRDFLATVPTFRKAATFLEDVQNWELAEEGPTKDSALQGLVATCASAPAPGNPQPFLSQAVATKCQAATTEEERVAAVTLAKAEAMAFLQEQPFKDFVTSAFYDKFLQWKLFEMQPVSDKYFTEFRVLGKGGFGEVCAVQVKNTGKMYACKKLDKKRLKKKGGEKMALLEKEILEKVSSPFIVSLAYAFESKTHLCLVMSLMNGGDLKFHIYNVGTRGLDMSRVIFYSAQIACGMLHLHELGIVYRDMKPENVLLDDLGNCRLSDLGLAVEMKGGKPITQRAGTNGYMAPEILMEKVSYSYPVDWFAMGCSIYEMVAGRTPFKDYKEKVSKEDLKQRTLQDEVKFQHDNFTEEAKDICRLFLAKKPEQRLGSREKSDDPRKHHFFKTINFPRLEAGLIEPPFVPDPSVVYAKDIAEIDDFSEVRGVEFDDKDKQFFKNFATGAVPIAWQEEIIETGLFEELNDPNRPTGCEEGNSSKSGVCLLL
T37 sequence (P27361 whole entry): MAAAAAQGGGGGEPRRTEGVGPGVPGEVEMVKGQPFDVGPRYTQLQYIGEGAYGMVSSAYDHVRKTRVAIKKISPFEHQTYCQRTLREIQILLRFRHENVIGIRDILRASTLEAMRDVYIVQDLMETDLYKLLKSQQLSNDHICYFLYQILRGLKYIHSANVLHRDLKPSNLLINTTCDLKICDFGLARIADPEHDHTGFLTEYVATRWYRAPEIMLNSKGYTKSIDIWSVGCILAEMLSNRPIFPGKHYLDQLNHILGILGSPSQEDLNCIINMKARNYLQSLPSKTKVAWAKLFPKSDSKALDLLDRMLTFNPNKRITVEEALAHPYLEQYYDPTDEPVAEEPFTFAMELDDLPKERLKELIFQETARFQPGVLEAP

For `CN(C)c1cc(-c2ccncc2)c(-c2cccc3ccccc23)nn1` [MW181, N,N-dimethyl-6-(naphthalen-1-yl)-5-(pyridin-4-yl)pyridazin-3-amine], the activity at 20 µM [1] was 101%, the activity at 20 µM [2] was 94% and the activity at 20 µM [3] was 100%. For the same compound, the activity at 20 µM [4] was 107%, the activity at 20 µM [5] was 118% and the activity at 20 µM [6] was 109%. For the same compound, the activity at 20 µM [7] was 98%, the activity at 20 µM [8] was 100% and the activity at 20 µM [9] was 98%. For the same compound, the activity at 20 µM [10] was 103%, the activity at 20 µM [11] was 110% and the activity at 20 µM [12] was 108%. The activity at 20 µM [13] was 84%, the activity at 20 µM [14] was 100% and the activity at 20 µM [15] was 95%. The activity at 20 µM [16] was 114%, the activity at 20 µM [17] was 86% and the activity at 20 µM [18] was 102%. For the same compound, the “LPS-induced IL-1β production” value [19] was “inhibited LPS-induced IL-1β production in a concentration-dependent manner”, the activity at 20 µM [20] was 102% and the activity at 20 µM [21] was 97%. It also gave an activity at 20 µM [22] of 96%, an activity at 20 µM [23] of 54% and an activity at 20 µM [24] of 92%. It also gave an activity at 20 µM [25] of 105%, an activity at 20 µM [26] of 102% and an activity at 20 µM [27] of 87%. It also gave an activity at 20 µM [28] of 105%, an activity at 20 µM [29] of 108% and an activity at 20 µM [30] of 112%. The activity at 20 µM [31] was 92%, the activity at 20 µM [32] was 116% and the activity at 20 µM [33] was 78%. For the same compound, the activity at 20 µM [34] was 101%, the activity at 20 µM [35] was 98% and the activity at 20 µM [36] was 95%. The activity at 20 µM [37] was 102%, the activity at 20 µM [38] was 90% and the activity at 20 µM [39] was 102%. For the same compound, the activity at 20 µM [40] was 112%, the activity at 20 µM [41] was 101% and the activity at 20 µM [42] was 86%. The activity at 20 µM [43] was 106%.
